Measurements from patent US10959432B2, “Microbiocidal oxadiazole derivatives” (Syngenta Participations AG, priority 2016, dated 2021).

Assays:
[1] = system: Puccinia recondita f. sp. tritici; test: Fungicidal activity against Puccinia recondita f. sp. tritici / wheat / leaf disc preventative (brown rust); format: in vivo; conditions: foliar, 200 ppm in the applied formulation, wheat leaf segments cv. Kanzler, preventative (inoculated 1 day after application), assessed 7 to 9 days after application, read-out: disease control compared to untreated control leaf disks
How it was run: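 Preventative leaf-segment test: compound sprayed at 200 ppm onto wheat (cv. Kanzler) segments, brown rust spores applied 1 day after. Kept at 19C and 75% rh under 12 h light/dark cycles; disease control versus untreated check read 7 to 9 days post-application.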

[2] = system: Puccinia recondita f. sp. tritici; test: Fungicidal activity against Puccinia recondita f. sp. tritici / wheat / leaf disc curative (brown rust); format: in vivo; conditions: foliar, 200 ppm in the applied formulation, wheat leaf segments cv. Kanzler, curative (applied 1 day after inoculation), assessed 6 to 8 days after application, read-out: disease control compared to untreated control leaf disks
How it was run: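 Curative test: compound, diluted from DMSO stock into water, applied one day after spore inoculation of wheat (cv. Kanzler) leaf segments kept on agar in darkness at 19° C. and 75% RH. Climate-cabinet incubation (19° C., 75% RH, 12 h photoperiod); disease control relative to untreated read 6–8 days post-application.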

Phakopsora pachyrhizi = test: Fungicidal activity against Phakopsora pachyrhizi / soybean / leaf disc preventative (Asian soybean rust); format: in vivo; conditions: foliar, 200 ppm in the applied formulation, soybean leaf disks, preventative (inoculated one day after application), assessed 12 to 14 days after application, read-out: disease control compared to untreated control leaf disks
How it was run: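 Preventative test: compound applied to soybean leaf discs a day before spore inoculation of the lower surface. Discs kept at 20° C and 75% rh, first 24-36 h in darkness, then under 12 h light/day; disease control relative to untreated discs rated 12 to 14 days post-application.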

[3] = system: Glomerella laqenarium (Colletotrichum lagenarium); test: Fungicidal activity against Glomerella lagenarium (Colletotrichum lagenarium) liquid culture / cucumber / preventative (anthracnose); format: cell-based; conditions: Colletotrichum orbiculare; 20 ppm in the applied formulation; liquid culture in PDB, 24° C., 3 to 4 days after application; read-out: disease control compared to untreated control (inhibition of growth measured photometrically)
How it was run: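 Test compound, applied from DMSO solution, is combined with PDB containing conidia taken from cryogenic storage. After 3–4 days at 24 °C, growth is measured photometrically and antifungal activity expressed as percent relative to untreated control.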

Uromyces viciae-fabae = test: Fungicidal activity against Uromyces viciae-fabae / field bean / leaf disc preventative (faba-bean rust); format: in vivo; conditions: foliar, 288 h, 100 ppm in the applied formulation, field bean leaf discs, preventative (inoculated two hours after application), assessed 12 days after application, read-out: disease control compared to untreated control leaf discs
How it was run: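 Field bean leaf discs on water agar treated with 10 μl compound in acetone plus spreader, then spray-inoculated on the lower surface with Uromyces viciae-fabae spores 2 h later. Incubation at 22 °C, 18 h day, 70% RH; percent disease control versus untreated scored 12 days after application, compounds at 100 ppm.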

O=C(NCc1nccs1)c1ccc(-c2noc(C(F)(F)F)n2)cc1F [Compound 5b.19, 2-fluoro-N-(thiazol-2-ylmethyl)-4-[5-(trifluoromethyl)-1,2,4-oxadiazol-3-yl]benzamide]
≥ 80%: pest or weed control at 200 ppm [1] | pest or weed control at 200 ppm [2] | pest or weed control at 200 ppm (Phakopsora pachyrhizi) | inhibition at 20 ppm [3] | pest or weed control at 100 ppm (Uromyces viciae-fabae)

O=C(NCC1CC(F)(F)C1(F)F)c1ccc(-c2noc(C(F)(F)F)n2)cc1F (stereo not drawn) [Compound 2b.4, 2-fluoro-N-[(2,2,3,3-tetrafluorocyclobuty)methyl]-4-[5-(trifluoromethyl)-1,2,4-oxadiazol-3-yl]benzamide]
≥ 80%: pest or weed control at 200 ppm [1] | pest or weed control at 200 ppm [2] | pest or weed control at 200 ppm (Phakopsora pachyrhizi) | inhibition at 20 ppm [3] | pest or weed control at 100 ppm (Uromyces viciae-fabae)

Cc1ccc(CNC(=O)c2ccc(-c3noc(C(F)(F)F)n3)cc2F)o1 [Compound 5b.9, 2-fluoro-N-[(5-methyl-2-furyl)methyl]-4-[5-(trifluoromethyl)-1,2,4-oxadiazol-3-yl]benzamide]
≥ 80%: pest or weed control at 200 ppm [1] | pest or weed control at 200 ppm [2] | pest or weed control at 200 ppm (Phakopsora pachyrhizi) | inhibition at 20 ppm [3] | pest or weed control at 100 ppm (Uromyces viciae-fabae)

CC(NC(=O)c1ccc(-c2noc(C(F)(F)F)n2)cc1F)C1CC1 (stereo not drawn) [Compound 2b.5, N-(1-cyclopropylethyl)-2-fluoro-4-[5-(trifluoromethyl)-1,2,4-oxadiazol-3-yl]benzamide]
≥ 80%: pest or weed control at 200 ppm [1] | pest or weed control at 200 ppm [2] | pest or weed control at 200 ppm (Phakopsora pachyrhizi) | inhibition at 20 ppm [3] | pest or weed control at 100 ppm (Uromyces viciae-fabae)

O=C(NCCc1cccs1)c1ccc(-c2noc(C(F)(F)F)n2)cc1F [Compound 5b.13, 2-fluoro-N-[2-(2-thienyl)ethyl]-4-[5-(trifluoromethyl)-1,2,4-oxadiazol-3-yl]benzamide]
≥ 80%: pest or weed control at 200 ppm [1] | pest or weed control at 200 ppm [2] | pest or weed control at 200 ppm (Phakopsora pachyrhizi) | inhibition at 20 ppm [3] | pest or weed control at 100 ppm (Uromyces viciae-fabae)

O=C(NCC1CCC1)c1ccc(-c2noc(C(F)(F)F)n2)cc1F [Compound 2b.11, N-(cyclobutylmethyl)-2-fluoro-4-[5-(trifluoromethyl)-1,2,4-oxadiazol-3-yl]benzamide]
≥ 80%: pest or weed control at 200 ppm [1] | pest or weed control at 200 ppm [2] | pest or weed control at 200 ppm (Phakopsora pachyrhizi) | pest or weed control at 100 ppm (Uromyces viciae-fabae)

O=C(NCc1nccs1)c1ccc(-c2noc(C(F)(F)F)n2)cc1 [Compound 5a.10, N-(thiazol-2-ylmethyl)-4-[5-(trifluoromethyl)-1,2,4-oxadiazol-3-yl]benzamide]
≥ 80%: pest or weed control at 200 ppm [1] | pest or weed control at 200 ppm [2] | pest or weed control at 200 ppm (Phakopsora pachyrhizi) | inhibition at 20 ppm [3] | pest or weed control at 100 ppm (Uromyces viciae-fabae)

Cc1ccsc1CN(C)C(=O)c1ccc(-c2noc(C(F)(F)F)n2)cc1F [Compound 5b.3, 2-fluoro-N-methyl-N-[(3-methyl-2-thienyl)methyl]-4-[5-(trifluoromethyl)-1,2,4-oxadiazol-3-yl]benzamide]
≥ 80%: pest or weed control at 200 ppm [2] | pest or weed control at 200 ppm (Phakopsora pachyrhizi) | inhibition at 20 ppm [3] | pest or weed control at 100 ppm (Uromyces viciae-fabae)

CN(Cc1ccc(Cl)nc1)C(=O)c1ccc(-c2noc(C(F)(F)F)n2)cc1 [Compound 5a.9, N-[(6-chloro-3-pyridyl)methyl]-N-methyl-4-[5-(trifluoromethyl)-1,2,4-oxadiazol-3-yl]benzamide]
≥ 80%: pest or weed control at 200 ppm [1] | pest or weed control at 200 ppm [2] | pest or weed control at 200 ppm (Phakopsora pachyrhizi) | inhibition at 20 ppm [3] | pest or weed control at 100 ppm (Uromyces viciae-fabae)

O=C(NC1CCCSC1)c1ccc(-c2noc(C(F)(F)F)n2)cc1F (stereo not drawn) [Compound 1b.5, 2-fluoro-N-tetrahydrothiopyran-3-yl-4-[5-(trifluoromethyl)-1,2,4-oxadiazol-3-yl]benzamide]
≥ 80%: pest or weed control at 200 ppm [1] | pest or weed control at 200 ppm [2] | pest or weed control at 200 ppm (Phakopsora pachyrhizi) | inhibition at 20 ppm [3] | pest or weed control at 100 ppm (Uromyces viciae-fabae)

CCN(C(=O)c1ccc(-c2noc(C(F)(F)F)n2)cc1)C1CCN(OC)CC1 [Compound 1a.4, N-ethyl-N-(1-methoxy-4-piperidyl)-4-[5-(trifluoromethyl)-1,2,4-oxadiazol-3-yl]benzamide]
≥ 80%: pest or weed control at 200 ppm [1] | pest or weed control at 200 ppm [2] | inhibition at 20 ppm [3] | pest or weed control at 100 ppm (Uromyces viciae-fabae)

O=C(NCC1CCC1)c1ccc(-c2noc(C(F)(F)F)n2)cc1 [Compound 2a.3, N-(cyclobutylmethyl)-4-[5-(trifluoromethyl)-1,2,4-oxadiazol-3-yl]benzamide]
≥ 80%: pest or weed control at 200 ppm [1] | pest or weed control at 200 ppm [2] | pest or weed control at 200 ppm (Phakopsora pachyrhizi) | pest or weed control at 100 ppm (Uromyces viciae-fabae)

CN(CC1COCCO1)C(=O)c1ccc(-c2noc(C(F)(F)F)n2)cc1F (stereo not drawn) [Compound 1b.9, N-(1,4-dioxan-2-ylmethyl)-2-fluoro-N-methyl-4-[5-(trifluoromethyl)-1,2,4-oxadiazol-3-yl]benzamide]
≥ 80%: pest or weed control at 200 ppm [1] | pest or weed control at 200 ppm [2] | pest or weed control at 200 ppm (Phakopsora pachyrhizi) | inhibition at 20 ppm [3] | pest or weed control at 100 ppm (Uromyces viciae-fabae)

O=C(NC1CCC1)c1ccc(-c2noc(C(F)(F)F)n2)cc1F [Compound 2b.3, N-cyclobutyl-2-fluoro-4-[5-(trifluoromethyl)-1,2,4-oxadiazol-3-yl]benzamide]
≥ 80%: pest or weed control at 200 ppm [1] | pest or weed control at 200 ppm [2] | pest or weed control at 200 ppm (Phakopsora pachyrhizi) | inhibition at 20 ppm [3] | pest or weed control at 100 ppm (Uromyces viciae-fabae)

O=C(NCc1ccco1)c1ccc(-c2noc(C(F)(F)F)n2)cc1F [Compound 5b.11, 2-fluoro-N-(2-furylmethyl)-4-[5-(trifluoromethyl)-1,2,4-oxadiazol-3-yl]benzamide]
≥ 80%: pest or weed control at 200 ppm [1] | pest or weed control at 200 ppm [2] | pest or weed control at 200 ppm (Phakopsora pachyrhizi) | inhibition at 20 ppm [3] | pest or weed control at 100 ppm (Uromyces viciae-fabae)

CC1(NC(=O)c2ccc(-c3noc(C(F)(F)F)n3)cc2)CCC1 [Compound 2a.4, N-(1-methylcyclobutyl)-4-[5-(trifluoromethyl)-1,2,4-oxadiazol-3-yl]benzamide]
≥ 80%: pest or weed control at 200 ppm [1] | pest or weed control at 200 ppm [2] | pest or weed control at 200 ppm (Phakopsora pachyrhizi) | pest or weed control at 100 ppm (Uromyces viciae-fabae)

CN(Cc1cccs1)C(=O)c1ccc(-c2noc(C(F)(F)F)n2)cc1F [Compound 5b.2, 2-fluoro-N-methyl-N-(2-thienylmethyl)-4-[5-(trifluoromethyl)-1,2,4-oxadiazol-3-yl]benzamide]
≥ 80%: pest or weed control at 200 ppm [1] | pest or weed control at 200 ppm [2] | pest or weed control at 200 ppm (Phakopsora pachyrhizi) | inhibition at 20 ppm [3] | pest or weed control at 100 ppm (Uromyces viciae-fabae)

CC1(C)OCC(CNC(=O)c2ccc(-c3noc(C(F)(F)F)n3)cc2F)O1 (stereo not drawn) [Compound 1b.6, N-[(2,2-dimethyl-1,3-dioxolan-4-yl)methyl]-2-fluoro-4-[5-(trifluoromethyl)-1,2,4-oxadiazol-3-yl]benzamide]
≥ 80%: pest or weed control at 200 ppm [1] | pest or weed control at 200 ppm [2] | pest or weed control at 200 ppm (Phakopsora pachyrhizi) | pest or weed control at 100 ppm (Uromyces viciae-fabae)

CN(CC1OCCO1)C(=O)c1ccc(-c2noc(C(F)(F)F)n2)cc1F [Compound 1b.2, N-(1,3-dioxolan-2-ylmethyl)-2-fluoro-N-methyl-4-[5-(trifluoromethyl)-1,2,4-oxadiazol-3-yl]benzamide]
≥ 80%: pest or weed control at 200 ppm [1] | pest or weed control at 200 ppm [2] | pest or weed control at 200 ppm (Phakopsora pachyrhizi) | pest or weed control at 100 ppm (Uromyces viciae-fabae)

CCCN(C(=O)c1ccc(-c2noc(C(F)(F)F)n2)cc1)C1CCN(OC)CC1 [Compound 1a.5, N-(1-methoxy-4-piperidyl)-N-propyl-4-[5-(trifluoromethyl)-1,2,4-oxadiazol-3-yl]benzamide]
≥ 80%: pest or weed control at 200 ppm [2] | inhibition at 20 ppm [3] | pest or weed control at 100 ppm (Uromyces viciae-fabae)

CC1(NC(=O)c2ccc(-c3noc(C(F)(F)F)n3)cc2F)CCC1 [Compound 2b.12, 2-fluoro-N-(1-methylcyclobutyl)-4-[5-(trifluoromethyl)-1,2,4-oxadiazol-3-yl]benzamide]
≥ 80%: pest or weed control at 200 ppm [1] | pest or weed control at 200 ppm [2] | pest or weed control at 200 ppm (Phakopsora pachyrhizi) | pest or weed control at 100 ppm (Uromyces viciae-fabae)

CON1CCC(N(C)C(=O)c2ccc(-c3noc(C(F)(F)F)n3)cc2)CC1 [Compound 1a.3, N-(1-methoxy-4-piperidyl)-N-methyl-4-[5-(trifluoromethyl)-1,2,4-oxadiazol-3-yl]benzamide]
≥ 80%: pest or weed control at 200 ppm [1] | pest or weed control at 200 ppm [2] | inhibition at 20 ppm [3] | pest or weed control at 100 ppm (Uromyces viciae-fabae)
